By solubility is commonly meant how much of the substance goes into solution per volume.

Where “and” joins values, the source holds several entries; their conditions need not be identical. Equal values may be shown once. Entries after “also recorded” stand apart in the source; their conditions may differ. Where a name gives a salt, the structure may show the parent alone.

What all share (format): physicochemical
Data set [1] is described as follows: DVS test (dynamic vapor sorption, hygroscopicity). The settings on record: for hygroscopicity (in words): DVS. How it is done: All the three target forms remained no change after DVS test.
Dynamic Vapor Sorption (DVS) was used to study hygroscopicity on Model Q5000 SA (TA Instruments, New Castle, DE). A sample (1-10 mg) was placed in an aluminum pan and loaded on the sample side of the twin pan balance. The water sorption and desorption were studied as a function of relative humidity (RH) at 25° C. in 10% RH increments from 0% RH to 90% RH and then back to 0%. […] Data analysis was performed using Universal Analysis 2000 Version 4.7A (TA Instruments, New Castle, DE).

Data set [2] in a line: Solubility in bio-relevant media (SGF, FaSSIF, FeSSIF) and water. To be noted: for XRPD 0.5 h / XRPD 2 h / XRPD 24 h: filter cake; for solubility compared to Freebase Form I (in words): water, FaSSIF and FeSSIF, 37° C. How it is done: At 0.5, 2 and 24 hours, about 0.6 mL of each suspension was filtered, the filtrate was analyzed by HPLC and pH meter, and the filter cake was analyzed by XRPD. The samples were prepared in duplicate (n=2) per condition. Average value (n=2) was presented.
HPLC analysis was performed with an Agilent HPLC 1260 series instrument.

Data set [3] in a line: Solid-state stability at 60° C. (capped) and 40° C./75% RH (open). To be noted: for XRPD - 7 d / physical and chemical stability: 7 days; for physical and chemical stability: 60° C. (capped) and 40° C./75% RH (open); for Initial Purity: before storage, HPLC. As for the experimental part:
(capped) and 40° C./75% RH (open) for 7 days. Duplicate samples were prepared at each condition. The stability sample was dissolved in diluent to prepare solution at ˜1 mg/mL for HPLC purity analysis. Solid samples were analyzed by XRPD to check the crystal form. […] (capped) and 40° C./75% RH (open) for at least 7 days.

[4] abbreviates: FaSSIF, initial pH 6.45, 37° C., average n=2.
Where [5] appears, read: FaSSIF, initial pH 6.45, filtrate.
Where [6] appears, read: FeSSIF, initial pH 4.99, 37° C., average n=2.
Setting [7] is: FeSSIF, initial pH 4.99, filtrate.
[8] abbreviates: Water, initial pH 5.41, 37° C., average n=2.
The mark [9] stands for this setting: Water, initial pH 5.41, filtrate.
Where [10] appears, read: in FaSSIF and FeSSIF, XRPD of filter cake.

`C[C@@H]1[C@@H](Oc2ccc(C(=O)NC3CC3)nc2)CN1Cc1cnc2cc(Cl)c(=O)[nH]c2c1` [Hemiedisylate Salt Form II, 5-(((2R,3S)-1-((7-chloro-6-oxo-5,6-dihydro-1,5-naphthyridin-3-yl)methyl)-2-methylazetidin-3-yl)oxy)-N-cyclopropylpicolinamide]: in data set [1], the “hygroscopicity (in words)” value is on record as “hygroscopic”. Moreover, the water uptake result in data set [1] (from 0 to 90% RH at 25° C.) is listed as “about 3.6%”.
In the same order, the values of `C[C@@H]1[C@@H](Oc2ccc(C(=O)NC3CC3)nc2)CN1Cc1cnc2cc(Cl)c(=O)[nH]c2c1` [L-Malate Salt Form II, 5-(((2R,3S)-1-((7-chloro-6-oxo-5,6-dihydro-1,5-naphthyridin-3-yl)methyl)-2-methylazetidin-3-yl)oxy)-N-cyclopropylpicolinamide] are “hygroscopic” and “about 4.6%”.
For `C[C@@H]1[C@@H](Oc2ccc(C(=O)NC3CC3)nc2)CN1Cc1cnc2cc(Cl)c(=O)[nH]c2c1` [L-Tartrate Salt Form II, 5-(((2R,3S)-1-((7-chloro-6-oxo-5,6-dihydro-1,5-naphthyridin-3-yl)methyl)-2-methylazetidin-3-yl)oxy)-N-cyclopropylpicolinamide], the “hygroscopicity (in words)” value in data set [1] was “hygroscopic”. Further, in data set [1] (from 0 to 90% RH at 25° C.), the water uptake entry is reported as “about 10.2%”.
`C[C@@H]1[C@@H](Oc2ccc(C(=O)NC3CC3)nc2)CN1Cc1cnc2cc(Cl)c(=O)[nH]c2c1` [Maleate Form IV, 5-(((2R,3S)-1-((7-chloro-6-oxo-5,6-dihydro-1,5-naphthyridin-3-yl)methyl)-2-methylazetidin-3-yl)oxy)-N-cyclopropylpicolinamide]: the “XRPD 0.5 h” value in data set [2] (FaSSIF) and in data set [2] (FeSSIF) was “FB Form I” in each case. Besides, the “XRPD 2 h” value in data set [2] (FaSSIF) and in data set [2] (FeSSIF) was “FB Form I” in each case. The “XRPD 24 h” value in data set [2] (FaSSIF) and in data set [2] (FeSSIF) was “FB Form I” each time. Besides, the “Solubility 0.5 h” value was determined as 397 µg/mL in data set [2] (setting [4]), 369 µg/mL in data set [2] (setting [6]) and 4527 µg/mL in data set [2] (setting [8]). In addition, the “Solubility 2 h” value in data set [2] (setting [4]) came out at 410 µg/mL; in data set [2] (setting [6]) it was 159 µg/mL; in data set [2] (setting [8]), 4494 µg/mL. In addition, the “Solubility 24 h” value in data set [2] (setting [4]) was 373 µg/mL; in data set [2] (setting [8]), 3797 µg/mL. The “pH 0.5 h” value in data set [2] (setting [5]) is on record as 4.58; in data set [2] (setting [7]), 4.82; in data set [2] (SGF, initial pH 1.23, filtrate) it was 1.33; in data set [2] (setting [9]), 3.81. Also, the “pH 2 h” value came to 4.46 in data set [2] (setting [5]); 4.82 in data set [2] (setting [7]); 1.17 in data set [2] (SGF, initial pH 1.23, filtrate); 3.75 in data set [2] (setting [9]). Further, the “pH 24 h” value in data set [2] (setting [5]) came to 4.43; in data set [2] (setting [7]), 4.79; in data set [2] (SGF, initial pH 1.23, filtrate), 1.22; in data set [2] (setting [9]), 3.90. Besides, the solubility at 24 h in data set [2] (FeSSIF, 37 °C, pH 4.99, fessif, thermodynamic from solid, initial pH 4.99, 37° C., average n=2) is 131 µg/mL. The “XRPD 0.5 h, 2 h, 24 h” value is on record as “Clear” in data set [2] (SGF) and “Little solid” in data set [2] (Water). Moreover, in data set [2] (SGF, 37 °C, pH 1.23, simulated gastric fluid, thermodynamic from solid, SGF, initial pH 1.23, 37° C., read-out: Solubility 0.5 h, 2 h, 24 h), the solubility is above 5000 µg/mL. Further, the “form change of the solid” value in data set [2] (setting [10]) is on record as “dissociated into Freebase Form I”. Moreover, in data set [2], the “solubility compared to Freebase Form I (in words)” value is “improved solubility”. For the same compound, the “XRPD - 7 d” value in data set [3] (40° C./75% RH (open)) and in data set [3] (60° C. (capped)) was “Unchanged” each time. Also, the “physical and chemical stability” value in data set [3] was “physically and chemically stable”. Also, in data set [3], the “Initial Purity” value is given as 99.72 area %. Also, in data set [1], the “hygroscopicity (in words)” value is reported as “slightly hygroscopic”. The water uptake in data set [1] (at 80% RH) is < 1% and 0.6%; in data set [1] (at 90% RH), 0.9%.
As for `C[C@@H]1[C@@H](Oc2ccc(C(=O)NC3CC3)nc2)CN1Cc1cnc2cc(Cl)c(=O)[nH]c2c1` [Sulfate Salt Form III, 5-(((2R,3S)-1-((7-chloro-6-oxo-5,6-dihydro-1,5-naphthyridin-3-yl)methyl)-2-methylazetidin-3-yl)oxy)-N-cyclopropylpicolinamide], the “hygroscopicity (in words)” value in data set [1] is listed as “hygroscopic”. For the same compound, in data set [1] (from 0 to 90% RH at 25° C.), the water uptake entry is given as “about 6%”.
Take `C[C@@H]1[C@@H](Oc2ccc(C(=O)NC3CC3)nc2)CN1Cc1cnc2cc(Cl)c(=O)[nH]c2c1` [Tartrate Form I, 5-(((2R,3S)-1-((7-chloro-6-oxo-5,6-dihydro-1,5-naphthyridin-3-yl)methyl)-2-methylazetidin-3-yl)oxy)-N-cyclopropylpicolinamide]: the “XRPD 0.5 h” value is listed as “Amorphous” in data set [2] (FaSSIF), “Amorphous” in data set [2] (FeSSIF) and “Unchanged” in data set [2] (Water). Besides, the “XRPD 2 h” value in data set [2] (FaSSIF) is “FB Form I”; in data set [2] (FeSSIF) it was “FB Form I”; in data set [2] (Water), “Unchanged”. Further, the “XRPD 24 h” value in data set [2] (FaSSIF) and in data set [2] (FeSSIF) was “FB Form I” each time. In addition, the “Solubility 0.5 h” value in data set [2] (setting [4]) came out at 2088 µg/mL; in data set [2] (setting [6]), 496 µg/mL; in data set [2] (setting [8]) it was 4288 µg/mL. Also, the “Solubility 2 h” value in data set [2] (setting [4]) amounted to 1320 µg/mL; in data set [2] (setting [6]) it was 207 µg/mL; in data set [2] (setting [8]), 4422 µg/mL. For the same compound, the figures for the “Solubility 24 h” value in data set [2] (setting [4]), in data set [2] (setting [6]) and in data set [2] (setting [8]) were 980 µg/mL, 144 µg/mL and 293 µg/mL, respectively. Besides, the “pH 0.5 h” value in data set [2] (setting [5]) was found to be 3.98; in data set [2] (setting [7]), 4.71; in data set [2] (SGF, initial pH 1.23, filtrate), 1.32; in data set [2] (setting [9]), 3.63. For the same compound, the “pH 2 h” value in data set [2] (setting [5]) was found to be 3.81; in data set [2] (setting [7]) it was 4.71; in data set [2] (SGF, initial pH 1.23, filtrate), 1.17; in data set [2] (setting [9]), 3.58. The “pH 24 h” value is reported as 3.69 in data set [2] (setting [5]); 4.70 in data set [2] (setting [7]); 1.25 in data set [2] (SGF, initial pH 1.23, filtrate); 3.73 in data set [2] (setting [9]). Further, in data set [2] (SGF), the “XRPD 0.5 h, 2 h, 24 h” value is recorded as “Clear”. The “Solubility 0.5 h, 2 h, 24 h” value in data set [2] (SGF, initial pH 1.23, 37° C.) was above 5000 µg/mL. Further, the “form change of the solid” value in data set [2] (setting [10]) is given as “dissociated into Freebase Form I”; in data set [2] (in water at 24 h), “converted into a new pattern”. For the same compound, in data set [2] (in FaSSIF and FeSSIF, compared with Maleate Form IV), the “conversion rate to the freebase (in words)” value is “slower conversion rate; also recorded: slower form conversion”. Further, the “solubility compared to Freebase Form I (in words)” value in data set [2] is “improved solubility”. Besides, the “XRPD - 7 d” value in data set [3] (40° C./75% RH (open)) and in data set [3] (60° C. (capped)) was “Unchanged” in each case. Besides, in data set [3], the “physical and chemical stability” value is “physically and chemically stable”. In data set [3], the “Initial Purity” value amounted to 99.64 area %. The “hygroscopicity (in words)” value in data set [1] and in data set [1] (listed as Tartrate Salt Form I) was “slightly hygroscopic” each time. Moreover, the water uptake in data set [1] (at 80% RH) is < 1% and 0.8%; in data set [1] (at 90% RH) it was 1.4%; in data set [1] (from 0 to 90% RH at 25° C., listed as Tartrate Salt Form I), “about 1.1%”.
